Measured values published in the supplement of paper PMC11061612.

Key:
Assay in all cases: Bliss excess, mean over the matrix (fraction); higher = more synergy
[1] = tested on: SBC-3 (Small Cell Lung Carcinoma)
Summary of the method: (§1)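 Bliss excess equals the observed combination effect minus the expected value EA + EB − EA·EB, where EA and EB are the effects of each agent alone. Combination Emax is the second-highest inhibition within the matrix. Inhibition was scaled from CellTiter-Glo 2.0 luminescence, with 0 set by vehicle wells and 1 by blank wells, after 72 hours of two-drug dosing of cells plated in 1536-well plates.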

[2] = tested on: OCI-M1 (Acute Myeloid Leukemia)
Summary of the method: as §1

[3] = tested on: ATN-1 (T-Lymphoblastic Leukemia)
Summary of the method: as §1

[4] = tested on: SCC90 (Head and Neck Carcinoma)
Summary of the method: as §1

C32 (Melanoma) = tested on: C32 (Melanoma)
Summary of the method: as §1

[5] = tested on: IGROV-1 (Ovarian Carcinoma)
Summary of the method: as §1

SK-N-DZ (Neuroblastoma) = tested on: SK-N-DZ (Neuroblastoma)
Summary of the method: as §1

MG-63 (Osteosarcoma) = tested on: MG-63 (Osteosarcoma)
Summary of the method: as §1

[6] = tested on: OVKATE (Ovarian Carcinoma)
Summary of the method: as §1

[7] = tested on: TK (B-Cell Non-Hodgkin's Lymphoma)
Summary of the method: as §1

DK-MG (Glioblastoma) = tested on: DK-MG (Glioblastoma)
Summary of the method: as §1

NCI-H2452 (Mesothelioma) = tested on: NCI-H2452 (Mesothelioma)
Summary of the method: as §1

[8] = tested on: BT-474 (Breast Carcinoma)
Summary of the method: as §1

[9] = tested on: NCI-H1048 (Small Cell Lung Carcinoma)
Summary of the method: as §1

[10] = tested on: NTERA-2-cl-D1 (Other Solid Carcinomas)
Summary of the method: as §1

[11] = tested on: CAL-85-1 (Breast Carcinoma)
Summary of the method: as §1

SK-MEL-24 (Melanoma) = tested on: SK-MEL-24 (Melanoma)
Summary of the method: as §1

[12] = tested on: NCI-H2170 (Squamous Cell Lung Carcinoma)
Summary of the method: as §1

[13] = tested on: SBC-5 (Small Cell Lung Carcinoma)
Summary of the method: as §1

[14] = tested on: JURL-MK1 (Chronic Myelogenous Leukemia)
Summary of the method: as §1

| SMILES | Bliss excess [1] | Bliss excess [2] | Bliss excess [3] | Bliss excess [4] | Bliss excess (C32 (Melanoma)) | Bliss excess [5] | Bliss excess (SK-N-DZ (Neuroblastoma)) | Bliss excess (MG-63 (Osteosarcoma)) | Bliss excess [6] | Bliss excess [7] | Bliss excess (DK-MG (Glioblastoma)) | Bliss excess (NCI-H2452 (Mesothelioma)) | Bliss excess [8] | Bliss excess [9] | Bliss excess [10] | Bliss excess [11] | Bliss excess (SK-MEL-24 (Melanoma)) | Bliss excess [12] | Bliss excess [13] | Bliss excess [14] |
| --- | --- | --- | --- | --- | --- | --- | --- | --- | --- | --- | --- | --- | --- | --- | --- | --- | --- | --- | --- | --- |
| CN(C)CCCOc1ccc(-c2ccc3ncc4c(c3c2)n(C2CCOCC2)c(=O)n4C)cn1 [AZD0156] + C=CCn1c(=O)c2cnc(Nc3ccc(N4CCN(C)CC4)cc3)nc2n1-c1cccc(C(C)(C)O)n1 [AZD1775] (first compound max 1 µM, partner max 1 µM) | -0.0451 | 0.0077 | 0.0198 | -0.0542 | -0.0348 | -0.0826 | -0.0179 | -0.0428 | -0.0601 | -0.0045 | -0.0003 | -0.0253 | -0.0647 | -0.0815 | -0.0807 | -0.0155 | -0.0255 | 0.0914 | -0.018 | 0.0119 |
| CN(C)CCCOc1ccc(-c2ccc3ncc4c(c3c2)n(C2CCOCC2)c(=O)n4C)cn1 [AZD0156] + CCN(CCO)CCCOc1ccc2c(Nc3cc(CC(=O)Nc4cccc(F)c4)[nH]n3)ncnc2c1 [AZD2811] (first compound max 1 µM, 7x7, partner max 1 µM) | -0.0422 | 0.042 | -0.0742 | -0.0021 | -0.0213 | -0.0527 | 0.0526 | -0.0079 | -0.0648 | 0.0495 | 0.0081 | -0.042 | -0.0423 | -0.0053 | 0.0219 | -0.0409 | -0.0401 | -0.0136 | 0.0184 | 0.0538 |
| CN(C)CCCOc1ccc(-c2ccc3ncc4c(c3c2)n(C2CCOCC2)c(=O)n4C)cn1 [AZD0156] + C[C@@H]1COCCN1C2=NC(=NC(=C2)C3(CC3)[S@](=N)(=O)C)C4=C5C=CNC5=NC=C4 [AZD6738] (first compound max 1 µM, 7x7, partner max 10 µM) | 0.0039 | 0.0352 | -0.0052 | 0.0037 | -0.0323 | -0.0187 | 0.031 | -0.0056 | -0.0189 | 0.0289 | 0.0346 | -0.0547 | -0.0416 | -0.0129 | -0.0472 | 0.0042 | -0.0159 | 0.0947 | 0.0116 | 0.0269 |
| CN(C)CCCOc1ccc(-c2ccc3ncc4c(c3c2)n(C2CCOCC2)c(=O)n4C)cn1 [AZD0156] + O=C(c1cc(Cc2n[nH]c(=O)c3ccccc23)ccc1F)N1CCN(C(=O)C2CC2)CC1 [Olaparib] (first compound max 3 µM, partner max 3 µM) | 0.206 | 0.17 | 0.011 | -0.0621 | -0.035 | 0.0623 | -0.0533 | 0.0183 | 0.0008 | 0.0213 | 0.0012 | 0.12 | -0.0189 | 0.0772 | 0.0068 | -0.039 | 0.0037 | 0.0947 | 0.0732 | 0.157 |
| C=CCn1c(=O)c2cnc(Nc3ccc(N4CCN(C)CC4)cc3)nc2n1-c1cccc(C(C)(C)O)n1 [AZD1775] + C[C@@H]1COCCN1C2=NC(=NC(=C2)C3(CC3)[S@](=N)(=O)C)C4=C5C=CNC5=NC=C4 [AZD6738] (first compound max 1 µM, partner max 10 µM) | 0.0197 | 0.0327 | -0.0076 | 0.0167 | 0.0073 | -0.0348 | 0.0094 | 0.0271 | -0.0703 | 0.0031 | -0.0342 | -0.0518 | -0.0425 | 0.0582 | 0.0123 | -0.0511 | -0.0189 | -0.0253 | 0.0037 | 0.0515 |
| C=CCn1c(=O)c2cnc(Nc3ccc(N4CCN(C)CC4)cc3)nc2n1-c1cccc(C(C)(C)O)n1 [AZD1775] + O=C(c1cc(Cc2n[nH]c(=O)c3ccccc23)ccc1F)N1CCN(C(=O)C2CC2)CC1 [Olaparib] (first compound max 1 µM, partner max 10 µM) | 0.0028 | -0.0374 | -0.0189 | -0.0686 | -0.0271 | -0.0797 | -0.0122 | -0.0548 | -0.0316 | -0.0318 | -0.054 | -0.0608 | -0.0611 | -0.0389 | 0.107 | -0.055 | -0.0194 | -0.008 | -0.0435 | 0.001 |
| CCN(CCO)CCCOc1ccc2c(Nc3cc(CC(=O)Nc4cccc(F)c4)[nH]n3)ncnc2c1 [AZD2811] + C=CCn1c(=O)c2cnc(Nc3ccc(N4CCN(C)CC4)cc3)nc2n1-c1cccc(C(C)(C)O)n1 [AZD1775] (first compound max 1 µM, partner max 1 µM) | 0.11 | 0.058 | 0.0053 | 0.0258 | -0.0354 | -0.0034 | -0.0289 | -0.0052 | -0.0565 | 0.0069 | 0.0373 | -0.0387 | -0.0442 | 0.0662 | 0.192 | -0.0258 | -0.0378 | 0.051 | 0.114 | -0.0001 |
| CCN(CCO)CCCOc1ccc2c(Nc3cc(CC(=O)Nc4cccc(F)c4)[nH]n3)ncnc2c1 [AZD2811] + C[C@@H]1COCCN1C2=NC(=NC(=C2)C3(CC3)[S@](=N)(=O)C)C4=C5C=CNC5=NC=C4 [AZD6738] (first compound max 1 µM, 7x7, partner max 10 µM) | -0.0369 | 0.0009 | -0.0839 | 0.019 | -0.0803 | -0.0453 | -0.0507 | 0.011 | -0.0822 | -0.0108 | -0.0146 | -0.0756 | -0.0291 | -0.0304 | -0.065 | 0.0098 | -0.0914 | -0.0191 | -0.0236 | 0.027 |
| CCN(CCO)CCCOc1ccc2c(Nc3cc(CC(=O)Nc4cccc(F)c4)[nH]n3)ncnc2c1 [AZD2811] + O=C(c1cc(Cc2n[nH]c(=O)c3ccccc23)ccc1F)N1CCN(C(=O)C2CC2)CC1 [Olaparib] (first compound max 1 µM, 7x7, partner max 10 µM) | 0.0475 | 0.0337 | -0.0849 | 0.0459 | -0.0056 | 0.0329 | -0.0696 | 0.0197 | -0.0481 | 0.0322 | 0.0024 | -0.0675 | -0.0079 | -0.0161 | 0.066 | -0.0246 | -0.0339 | 0.0044 | 0.033 | 0.073 |
| COc1nnc2ccc(N3CCC(c4ccc(OCCN5CCN(C)C(=O)[C@H]5C)cc4)CC3)nn12 [AZD5153] + CN(CC[C@H](CSC1=CC=CC=C1)NC2=C(C=C(C=C2)S(=O)(=O)NC(=O)C3=CC=C(C=C3)N4CCC(CC4)[C@H](C5=CC=CC=C5C6=CC=C(C=C6)Cl)O)S(=O)(=O)C(F)(F)F)CCO [AZD4320] (first compound max 1 µM, 7x7, partner max 1 µM) | – | -0.0095 | -0.0165 | 0.021 | 0.0176 | 0.0077 | -0.0212 | – | – | -0.0154 | 0.0382 | – | 0.0941 | 0.0831 | – | – | – | 0.0175 | -0.0012 | -0.0137 |
| Cc1c2c(nn1C)CSCc1cc(n(C)n1)CSc1cc(c3ccccc3c1)OCCCc1c(C(=O)O)n(C)c3c-2c(Cl)ccc13 [AZD5991] + C1CN(CCC1(C(=O)N[C@@H](CCO)C2=CC=C(C=C2)Cl)N)C3=NC=NC4=C3C=CN4 [Capivasertib] (first compound max 1 µM, 7x7, partner max 3 µM) | -0.0316 | -0.0105 | 0.0208 | -0.0533 | 0.0009 | 0.0239 | -0.001 | -0.0384 | -0.0461 | -0.0039 | 0.047 | -0.0146 | 0.0359 | 0.0267 | – | -0.0289 | -0.0196 | -0.0324 | -0.0069 | 0.0028 |
| Cc1c2c(nn1C)CSCc1cc(n(C)n1)CSc1cc(c3ccccc3c1)OCCCc1c(C(=O)O)n(C)c3c-2c(Cl)ccc13 [AZD5991] + CN(C)CCCOc1ccc(-c2ccc3ncc4c(c3c2)n(C2CCOCC2)c(=O)n4C)cn1 [AZD0156] (first compound max 1 µM, 7x7, partner max 1 µM) | -0.0128 | -0.0097 | 0.0058 | 0.0172 | -0.0076 | -0.0297 | 0.0063 | – | -0.0708 | 0.0046 | -0.0518 | 0.0366 | 0.0064 | 0.0136 | -0.0123 | -0.0542 | -0.0328 | -0.0237 | 0.0387 | -0.0403 |
| CS(=O)(=O)CCNCc1ccc(-c2ccc3ncnc(Nc4ccc(OCc5cccc(F)c5)c(Cl)c4)c3c2)o1 [Lapatinib] + NC1(c2ccc(-c3nc4ccn5c(=O)[nH]nc5c4cc3-c3ccccc3)cc2)CCC1 [MK-2206] (first compound max 10 µM, 7x7, partner max 10 µM) | 0.0258 | 0.0217 | – | 0.0358 | 0.0188 | – | – | 0.0157 | -0.031 | – | – | -0.0302 | – | – | 0.0305 | -0.0016 | -0.0572 | – | -0.0051 | – |
| CC(=O)c1c(C)c2cnc(Nc3ccc(N4CCNCC4)cn3)nc2n(C2CCCC2)c1=O [Palbociclib] + CN(CC[C@H](CSC1=CC=CC=C1)NC2=C(C=C(C=C2)S(=O)(=O)NC(=O)C3=CC=C(C=C3)N4CCC(CC4)[C@H](C5=CC=CC=C5C6=CC=C(C=C6)Cl)O)S(=O)(=O)C(F)(F)F)CCO [AZD4320] (first compound max 10 µM, 7x7, partner max 1 µM) | – | -0.014 | -0.0253 | -0.0407 | -0.0713 | -0.0143 | 0.0814 | – | – | 0.0858 | -0.0456 | – | -0.108 | 0.019 | – | – | – | -0.0809 | -0.0715 | -0.075 |
| CCc1c2c(nc3ccc(O)cc13)-c1cc3c(c(=O)n1C2)COC(=O)[C@]3(O)CC [SN-38] + O=C(c1cc(Cc2n[nH]c(=O)c3ccccc23)ccc1F)N1CCN(C(=O)C2CC2)CC1 [Olaparib] (first compound max 0.3 µM, 7x7, partner max 10 µM) | 0.0513 | – | 0.0907 | 0.0728 | 0.117 | – | – | 0.0681 | -0.0113 | – | 0.0193 | 0.0422 | – | 0.0934 | 0.0387 | 0.059 | 0.0007 | 0.0726 | – | 0.0401 |
